In this assay the test system is soybean plants. In words: Pre- and post-emergence dicamba tolerance of transgenic soybean. The format is in vivo. As to conditions: wild type soybean; dicamba at post-V3 stage at 1 lb/a rate.

From the text: Several DMO expression units were constructed by operably linking one of each various promoters, CTPs, DMO variants, and 3′UTRs to obtain efficient DMO expression units for product development.

On to `COc1c(Cl)ccc(Cl)c1C(=O)O` [dicamba, 3,6-dichloro-o-anisic acid], for which the injury rate was 60%.
